Values quoted from earlier work in US20060246530A1, “Method and reagent for the specifically identifying and quantifying one or more proteins in a sample” (priority 2002, published 2006).

Key:
[1] = stability constant, Gd
mice = conditions: Intravenous LD50-rate in mice
[2] = stability constant
[3] = selectivity factor
[4] = stability constant, Cu
[5] = stability constant, Zn

| SMILES | Log KGdL [1] | LD50 (mice) [mmol/kg] | Log KCal [2] | Log Ksel [3] | Log KCuL [4] | Log KZnL [5] |
| --- | --- | --- | --- | --- | --- | --- |
| O=C(O)CN1CCNCCN(CC(=O)O)CCN(CC(=O)O)CC1 [DO3A] | 21.0 | 7 to 9 | 11.74 | 4.13 | 22.87 | 19.26 |
| O=C(O)CN1CCN(CC(=O)O)CCN(CC(=O)O)CCN(CC(=O)O)CC1 [DOTA, 1,4,7,10-tetraazacyclododecane-1,4,7,10-tetraacetic acid] | 24.6 | 11 | 17.23 | 8.3 | 22.63 | 21.05 |
| O=C(O)CN(CCN(CC(=O)O)CC(=O)O)CCN(CC(=O)O)CC(=O)O [DTPA] | 22.46 | 5.6 | 10.75 | 7.04 | 21.38 | 18.29 |
| O=C(O)CN(CCN(CC(=O)O)CC(=O)O)CC(=O)O [EDTA] | 17.7 |  | 10.61 | 4.23 | 18.78 | 16.5 |
| CC(O)CN1CCN(CC(=O)O)CCN(CC(=O)O)CCN(CC(=O)O)CC1 (centres unmarked) [HP-DO3A] | 23.8 | 12 | 14.83 | 6.95 | 22.84 | 19.37 |
